This note sets out measurements from patent US10702506B2, “Small molecule inhibitors of pendrin ion exchange and pharmaceutical compositions” (THE REGENTS OF THE UNIVERSITY OF CALIFORNIA, priority 2016, dated 2020).

One may read the IC50 as the concentration that gives 50% inhibition. Low readings indicate greater potency in that assay, high ones weaker potency in that assay.

For one experiment, the target named is T1, human SLC26A3 (Homo sapiens, UniProt P40879).
T1 construct: host or cells: COS7 fibroblasts, transient (Lipofectamine 2000), with EYFP-HIF
T1 sequence (P40879 1-764): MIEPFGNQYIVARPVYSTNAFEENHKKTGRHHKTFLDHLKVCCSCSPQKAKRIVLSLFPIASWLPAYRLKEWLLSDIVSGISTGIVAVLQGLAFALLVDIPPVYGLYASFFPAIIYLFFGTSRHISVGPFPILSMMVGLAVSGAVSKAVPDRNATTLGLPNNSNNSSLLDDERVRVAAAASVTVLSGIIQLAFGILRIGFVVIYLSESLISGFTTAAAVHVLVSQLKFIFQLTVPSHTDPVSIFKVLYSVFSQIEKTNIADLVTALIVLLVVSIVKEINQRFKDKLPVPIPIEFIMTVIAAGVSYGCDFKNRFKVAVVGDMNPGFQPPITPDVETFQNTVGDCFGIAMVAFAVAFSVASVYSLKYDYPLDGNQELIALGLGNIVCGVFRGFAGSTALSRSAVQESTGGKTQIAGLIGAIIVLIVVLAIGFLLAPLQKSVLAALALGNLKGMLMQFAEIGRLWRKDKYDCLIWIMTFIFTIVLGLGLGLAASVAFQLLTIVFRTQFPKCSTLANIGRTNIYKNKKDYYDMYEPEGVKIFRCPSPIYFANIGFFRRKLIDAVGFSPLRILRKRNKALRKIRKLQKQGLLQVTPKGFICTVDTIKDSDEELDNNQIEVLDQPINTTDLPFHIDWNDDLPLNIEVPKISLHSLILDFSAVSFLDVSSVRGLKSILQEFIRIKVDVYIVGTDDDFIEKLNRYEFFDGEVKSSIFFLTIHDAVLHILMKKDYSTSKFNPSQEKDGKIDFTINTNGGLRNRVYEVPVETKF
In words: SCN− transport YFP quenching assay in SLC26A3-expressing COS7 cells. It counts as cell-based. As to conditions: 25 μM, 30 min; 70 mM SCN− gradient. The method, then: SLC26A3 activity was measured using a SCN^− transport assay that produced YFP fluorescence quenching (FIG. 4B).
SLC26A3-mediated ion transport was measured in COS7 fibroblasts transiently transfected to express EYFP-HIF and human SLC26A3 (Origene, Rockville, Md.). COS7 cells were cultured in DMEM-H21 supplemented with 10% FBS, 2 mM glutamine, 100 U/ml penicillin and […] streptomycin and transfected using Lipofectamine 2000 (Invitrogen, Carlsbad, Calif.). SLC26A3-mediated transport was measured from EYFP-HIF fluorescence after addition of a NaSCN-substituted PBS solution to generate a 70 mM SCN^− gradient. Control experiments were done using COS-7 cells expressing EYFP-HIF alone.

Another experiment concerns the target T2, murine pendrin (Mus musculus, UniProt Q9R155).
T2 construct: expressed in transfected cells
T2 sequence (Q9R155 1-780): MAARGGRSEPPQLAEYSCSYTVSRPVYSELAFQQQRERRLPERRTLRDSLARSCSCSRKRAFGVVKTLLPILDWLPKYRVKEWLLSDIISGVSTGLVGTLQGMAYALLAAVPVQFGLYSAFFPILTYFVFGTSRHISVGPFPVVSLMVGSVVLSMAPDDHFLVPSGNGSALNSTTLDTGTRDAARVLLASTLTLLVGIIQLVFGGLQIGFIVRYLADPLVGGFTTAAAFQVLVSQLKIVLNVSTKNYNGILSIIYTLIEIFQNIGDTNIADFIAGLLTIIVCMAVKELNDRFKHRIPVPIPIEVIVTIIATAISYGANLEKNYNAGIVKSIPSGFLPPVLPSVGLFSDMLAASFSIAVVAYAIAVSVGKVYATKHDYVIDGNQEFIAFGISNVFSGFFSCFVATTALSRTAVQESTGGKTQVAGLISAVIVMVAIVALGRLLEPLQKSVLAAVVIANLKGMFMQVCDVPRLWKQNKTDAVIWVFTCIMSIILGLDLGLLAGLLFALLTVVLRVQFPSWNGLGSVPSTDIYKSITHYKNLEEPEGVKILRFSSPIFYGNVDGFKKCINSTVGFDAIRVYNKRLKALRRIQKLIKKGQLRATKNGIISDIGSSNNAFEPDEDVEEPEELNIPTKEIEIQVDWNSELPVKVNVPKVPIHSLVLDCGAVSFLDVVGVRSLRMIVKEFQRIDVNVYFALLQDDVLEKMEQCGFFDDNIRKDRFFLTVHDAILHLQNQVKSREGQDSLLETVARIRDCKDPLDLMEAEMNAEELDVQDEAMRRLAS
In words: BCECF intracellular pH assay of Cl−/HCO3− exchange in FRT cells expressing murine pendrin. It counts as cell-based. The method, then:
Pendrin-mediated exchange of Cl^− with SCN^−, I^− or NO3^− was measured from the kinetics of YFP fluorescence quenching in a BMG FLUOstar Omega platereader. Pendrin/YFP-expressing FRT cells were washed in PBS and transport measured following a 70-mM gradient of SCN^−, I^− or NO3^−. Pendrin-mediated Cl^−/HCO3^− exchange was measured from the kinetics of cytoplasmic pH (pHi) using BCECF-AM (Invitrogen). Pendrin-expressing FRT cells in HCO3^−-containing buffer (in mM: 120 NaCl, 5 KCl, 1 CaCl2), 1 MgSO4, 10 glucose, 5 Hepes, 25 NaHCO3^−; pH 7.4; 95% O2/5% CO2 equilibrated) were exposed to a Cl^−-free buffer (gluconate replacing Cl^−) to drive Cl^− efflux and HCO3^− influx.
Pendrin-mediated Cl^−/HCO3^− exchange was measured from the kinetics of intracellular pH, using BCECF fluorescence as a cytoplasmic pH sensor, following extracellular addition of gluconate in HCO3^−/CO2-containing buffer to drive Cl-efflux, HCO3^− influx, and consequent cytoplasmic alkalinization (FIG. 7D). […] YFP-based fluorescence quenching assays in COS-7 cells were established to measure AE1 (Slc4a1), CLD (Slc26a3) and NCC (Slc12a3) activities. […] A YFP-V163S fluorescence quenching assay in FRT cells was used to measure NKCC1 activity in which cells equilibrated gluconate-substituted PBS buffer were exposed to a Cl^−-containing solution containing 75 mM Na^+ and 75 mM K^+.

SMILES strings stand for the structures.

Consider `Cn1nc(COc2cccc(F)c2)c2c1CCN(C(=O)Nc1ccc(Cl)cc1)C2` [PDSinh-A01], for which the “inhibition of SLC26A3 SCN− transport (YFP quenching)” value on human SLC26A3 is “not significantly inhibited”.

`Cc1n[nH]c(-c2cc(S(=O)(=O)NC3CCCc4ccccc43)c(C)s2)c1C` (centres unmarked) [PDSinh-C01]: at murine pendrin, the IC50 is around 1200 nM.
